Measurements reported in patent US20040014187A1, “Bacterial carboxypeptidase cpg2 variants and their use in gene directed enzyme prodrug therapy” (priority 2000, published 2004).
Values joined by “and” are separate entries in the source; they are usually repeats but may differ in a detail not shown here. Identical values can stand only once. “Also recorded” adds a separate entry of the source. Like-named read-outs stand apart in the source and are kept apart here.

Assays:
WiDr cells [1] = experiment: Cytotoxicity of CMDA, [3H]-thymidine incorporation; format: cell-based, human
Description: (§1) Cytotoxicity and bystander cytotoxicity assays were performed as described previously (Marais et al (1996) Cancer Res. 56, 4735-4742). Briefly, for cytotoxicity assays, cells were grown to confluence and treated twice, once for an hour, immediately followed by an 18 h treatment, using increasing amounts of CMDA prodrug in DMEM/FCS. Cells were trypsinized and approximately 3% were replated and allowed to grow for a further 4 days, when uptake of [^3H]-thymidine was used to infer survival. For bystander assays, mixtures of cells expressing stCPG2(Q)3 and cells of the same lineage expressing β-galactosidase were treated with a single concentration of CMDA in the same two-stage treatment protocol, using 2 mM CMDA for WiDr and SK-OV-3 cells and 1 mM CMDA for A2780 cells.

SK-OV-3 cells [2] = experiment: Cytotoxicity of CMDA, [3H]-thymidine incorporation; format: cell-based, human
Description: as §1

A2780 cells [3] = experiment: Cytotoxicity of CMDA, [3H]-thymidine incorporation; format: cell-based, human
Description: as §1

[4] = patients, ADEPT trial; cited from earlier work
A2780 cells [5] = settings: A2780 clone expressing CPG2*, previous study; read-out: IC50 for CMDA; cited from earlier work
[6] = test system: control cell lines expressing lacZ; experiment: Kinetics of cell death: toxicity of CMDA test concentrations to control cells; format: cell-based, human; settings: 2 mM CMDA (WiDr, SK-OV-3) or 1 mM CMDA (A2780)
Description: To determine exposure times to CMDA required for the death of 50% of the cell populations, cell lines were plated at 3×10^5 cells per well in 6-well tissue culture plates, and allowed to grow to confluence. Tissue culture medium was replaced with 1 ml DMEM/FCS containing 2 mM CMDA (for WiDr and SK-OV-3 cell lines) or 1 mM CMDA (for A2780 cell lines). These concentrations are not toxic to control cell lines expressing lacZ. After 0.5, 1, 2, 4, 8, 12, and 16 h exposure, cells were trypsinized and approximately 3% were replated. After a further 4 d growth, cell survival was determined by [^3H]-thymidine incorporation (0.4 μCi/ml, 6h).

WiDr cells [7] = settings: WiDr clone expressing CPG2*, previous study; read-out: IC50 for CMDA; cited from earlier work
SK-OV-3 cells [8] = settings: SK-OV-3 clone expressing CPG2* (1.013 U/mg), previous study; read-out: IC50 for CMDA; cited from earlier work
[9] = biological target: the molecule itself; experiment: non-reducing SDS-PAGE of COS cell extracts (homodimer)
Description: We first determined why the asparagine to glutamine mutations that blocked glycosylation reduced CPG2s enzyme activity. […] We next tested each position independently.

[10] = Enzyme kinetic studies of CPG2-derived enzymes in detergent soluble cell extracts, MTX as substrate; format: biochemical; settings: for Catalytic activity (%): specific activity of COS/CPG2* (50 ng CPG2*) assigned as 100%; for Km: substrate MTX, detergent soluble cell extract, read-out: Km (μM MTX)
Description: Detergent soluble cell extracts, and enzyme kinetic analyses have been described previously (Marais et al (1996) Cancer Res. 56, 4735-4742; Marais et al (1997) Nature Biotech. 15, 1373-1377).

[11] = CPG2 enzyme activity in detergent soluble extracts of stably expressing clones, MTX as substrate; format: biochemical; settings: for CPG2 activity (U/mg): U/mg detergent soluble protein, clone as in label
Description: All mammalian cell lines were maintained in Dulbecco's Modified Eagle's Medium supplemented with 10% foetal calf serum (DMEM/FCS). For this study, the human colorectal carcinoma cell line WiDr (Noguchi et al (1979) In Vitro. 15, 401-408, and the human ovarian carcinoma cell lines SK-OV-3 (Hill et al. (1987) 39, 219-225) and A2780 (Louie et al. (1985) Cancer Res. 45, 2110-2115) were separately transfected with the plasmid pMCEFstcpg2(Q)3 (Marais et al (1997) Nature Biotech. 15, 1373-1377) and G418-resistant colonies were selected by limiting dilution. Detergent soluble extracts were incubated with methotrexate, a good carboxypeptidase G2 substrate. Rate of change of absorbance at 320 nm was measured to identify those colonies able to degrade MTX and therefore likely to express stCPG2(Q)3. Expression of stCPG2(Q)3 was confirmed by immunoblotting these detergent soluble extracts using a rabbit polyclonal serum specific for CPG2 (Marais et al (1996) Cancer Res. 56, 4735-4742; Marais et al (1997) Nature Biotech. 15, 1373-1377). Cell lines constitutively expressing β-galactosidase or CPG2* have been described (Marais et al (1996) Cancer Res. 56, 4735-4742; Marais et al (1997) Nature Biotech. 15, 1373-1377).
In order to conduct these studies, we engineered WiDr (human colorectal adenocarcinoma), SK-OV-3 and A2780 (both human ovarian tumour lines) cells for stable expression of stCPG2(Q)3. The presence of stCPG2(Q)3 was verified by immunoprotein blotting (data not shown) and the levels of enzyme activity in these clones were determined using MTX as substrate (Table 2). For each line two or three clones were examined. The SK-OV-3 clones expressed the lowest levels of CPG2 activity (0.016 and 0.023 U/mg protein) followed by the A2780 clones (0.06 and 0.067 U/mg), with WiDr clones expressing the highest level of CPG2 activity (0.177 and 0.226 U/mg) (Table 2).

[12] = previous study, cited from earlier work
[13] = CPG2 dimer stability by non-reducing SDS-polyacrylamide gel electrophoresis of COS cell extracts; settings: sample not heated
Description: To test this, CPG2* was transiently expressed in COS cells and the stability of the dimers determined by non-reducing SDS-polyacrylamide gels.

With `CS(=O)(=O)OCCN(CCCl)c1ccc(C(=O)N[C@@H](CCC(=O)O)C(=O)O)cc1` [CMDA, N-4-[(2-chloroethyl) (2-mesyloxyethyl)amino]benzoyl-L-glutamic acid] the “Differential cytotoxicity (fold)” value (WiDr cells [1]; WiDr clone W3 stCPG2(Q)3 versus lacZ) was 32.3 fold, the “Differential cytotoxicity (fold)” value (WiDr cells [1]; WiDr clone W4 stCPG2(Q)3 versus lacZ) was 22.0 fold and the IC50 (WiDr cells [1]; WiDr clones expressing stCPG2(Q)3, read-out: IC50 for CMDA) was 100 to 150 µM and 100 µM and 147 µM. For the same molecule, the IC50 (WiDr cells [1]; WiDr expressing lacZ (β-gal), read-out: IC50 (μM CMDA)) was 3230 µM, the “Differential cytotoxicity (fold)” value (SK-OV-3 cells [2]; SK-OV-3 clone S2.34 CPG2* versus lacZ) was 3.2 fold and the IC50 (SK-OV-3 cells [2]; SK-OV-3 clone S2.34 expressing CPG2*, read-out: IC50 (μM CMDA)) was 1290 µM. For the same molecule, the “Differential cytotoxicity (fold)” value (SK-OV-3 cells [2]; SK-OV-3 clone S2.4 CPG2* versus lacZ) was 1.3 fold, the IC50 (SK-OV-3 cells [2]; SK-OV-3 clone S2.4 expressing CPG2*, read-out: IC50 (μM CMDA)) was 3200 µM and the IC50 (SK-OV-3 cells [2]; SK-OV-3 clone S5 expressing stCPG2(Q)3, read-out: IC50 (μM CMDA)) was 216 µM. For the same molecule, the “Differential cytotoxicity (fold)” value (SK-OV-3 cells [2]; SK-OV-3 clone S5 stCPG2(Q)3 versus lacZ) was 19.4 fold, the IC50 (SK-OV-3 cells [2]; SK-OV-3 clone S6 expressing stCPG2(Q)3, read-out: IC50 (μM CMDA)) was 479 µM and the “Differential cytotoxicity (fold)” value (SK-OV-3 cells [2]; SK-OV-3 clone S6 stCPG2(Q)3 versus lacZ) was 8.7 fold. For the same molecule, the IC50 (SK-OV-3 cells [2]; SK-OV-3 clone S7 expressing stCPG2(Q)3, read-out: IC50 (μM CMDA)) was 544 µM, the “Differential cytotoxicity (fold)” value (SK-OV-3 cells [2]; SK-OV-3 clone S7 stCPG2(Q)3 versus lacZ) was 7.7 fold and the “increase in sensitivity compared to β-gal expressing cells” value (SK-OV-3 cells [2]; SK-OV-3 clones expressing stCPG2(Q)3) was 7-20 fold. For the same molecule, the IC50 (SK-OV-3 cells [2]; SK-OV-3 clones expressing stCPG2(Q)3, read-out: IC50 for CMDA) was 216 to 544 µM, the IC50 (SK-OV-3 cells [2]; SK-OV-3 expressing lacZ, read-out: IC50 (μM CMDA)) was 4180 µM and the IC50 (A2780 cells [3]; A2780 clone A3 expressing stCPG2(Q)3) was 15.6 µM. For the same molecule, the “Differential cytotoxicity (fold)” value (A2780 cells [3]; A2780 clone A3 stCPG2(Q)3 versus lacZ) was 138 fold, the IC50 (A2780 cells [3]; A2780 clone A4 expressing stCPG2(Q)3) was 20.4 µM and the “Differential cytotoxicity (fold)” value (A2780 cells [3]; A2780 clone A4 stCPG2(Q)3 versus lacZ) was 105 fold. For the same molecule, the “increase in sensitivity compared to β-gal expressing cells” value (A2780 cells [3]; A2780 clones expressing stCPG2(Q)3) was over 100 fold, the IC50 (A2780 cells [3]; A2780 expressing lacZ (β-gal)) was 2150 µM and the “peak CMDA concentration in sera” value [4] was “approximately 3 mM”. For the same molecule, the IC50 (A2780 cells [5]) was 23.2 µM, the “toxicity to control cell lines expressing lacZ” value [6] was “not toxic” and the IC50 (WiDr cells [7]) was 277 µM. The IC50 (SK-OV-3 cells [8]) was 258 µM.

B1: CPG2* (cytosolic carboxypeptidase G2 from Pseudomonas strain RS16) (enzyme)
chain: ALAQKRDNVLFQAATDEQPAVIKTLEKLVNIETGTGDAEGIAAAGNFLEAELKNLGFTVTRSKSAGLVVGDNIVGKIKGRGGKNLLLMSHMDTVYLKGILAKAPFRVEGDKAYGPGIADDKGGNAVILHTLKLLKEYGVRDYGTITVLFNTDEEKGSFGSRDLIQEEAKLADYVLSFEPTSAGDEKLSLGTSGIAYVQVNITGKASHAGAAPELGVNALVEASDLVLRTMNIDDKAKNLRFNWTIAKAGNVSNIIPASATLNADVRYARNEDFDAAMKTLEERAQQKKLPEADVKVIVTRGRPAFNAGEGGKKLVDKAVAYYKEAGGTLGVEERTGGGTDAAYAALSGKPVIESLGLPGFGYHSDKAEYVDISAIPRRLYMAARLIMDLGAGK
notes: Homodimer; also called COS/CPG2*
In the case of B1, the binding result [9] is reported as “binds”, the “Catalytic activity (%)” value [10] is reported as 100% and the Km [10] is reported as 7.2 µM. The “enzyme activity of CPG2* clone relative to stCPG2(Q)3 clones” value ([11]; A2780) was about 15 times, the “CPG2 activity (U/mg)” value ([11]; listed as S2.34 CPG2*) was 0.023 U/mg and the “CPG2 activity (U/mg)” value ([11]; listed as S2.4 CPG2*) was 0.014 U/mg. The CPG2 enzyme activity ([12]; A2780 clone expressing CPG2*) was 0.964 U/mg, the CPG2 enzyme activity ([12]; SK-OV-3 clone expressing CPG2*) was 1.013 U/mg and the CPG2 enzyme activity ([12]; WiDr clone expressing CPG2*) was 0.787 U/mg.

B2: CPG2*(QSQ) (enzyme)
chain: ALAQKRDNVLFQAATDEQPAVIKTLEKLVNIETGTGDAEGIAAAGNFLEAELKNLGFTVTRSKSAGLVVGDNIVGKIKGRGGKNLLLMSHMDTVYLKGILAKAPFRVEGDKAYGPGIADDKGGNAVILHTLKLLKEYGVRDYGTITVLFNTDEEKGSFGSRDLIQEEAKLADYVLSFEPTSAGDEKLSLGTSGIAYVQVQITGKASHAGAAPELGVNALVEASDLVLRTMNIDDKAKNLRFSWTIAKAGQVSNIIPASATLNADVRYARNEDFDAAMKTLEERAQQKKLPEADVKVIVTRGRPAFNAGEGGKKLVDKAVAYYKEAGGTLGVEERTGGGTDAAYAALSGKPVIESLGLPGFGYHSDKAEYVDISAIPRRLYMAARLIMDLGAGK
notes: also called COS/CPG2* (QSQ)
With B2 the binding result [9] was “binds”, the “catalytic activity compared to CPG2*(Q)3” value ([10]; increase relative to CPG2*(Q)3) was “almost twice as active” and the “increase in Km (decrease in apparent affinity for MTX) compared to CPG2*(Q)3” value ([10]; relative to CPG2*(Q)3) was about 6 fold. The “Catalytic activity (%)” value [10] was 58%, the Km [10] was 58 µM and the dimer stability [13] was “improved; also recorded: restored weak dimer stability”.
